In the test the target is T1, NBD1 (Homo sapiens, UniProt P13569).
T1 construct: Purified recombinant NBD1 was produced using previously described methods; made in house
Kind of test: Aggregation analysis using differential static light scattering (DSLS), thermal stability of NBD1 (ΔTagg). The format is binding. The settings on record: ΔTagg versus DMSO control, NBD1 0.2 mg/ml. How it is done:
Example 386. Aggregation Analysis Using Differential Static Light Scattering (DSLS)
Purified recombinant NBD1 was produced using previously described methods (A. Schmidt, J. L. Mendoza, P. J. Thomas (2011) Biochemical and Biophysical Approaches to Probe CFTR Structure (365-376) M. D. Amaral, K. Kunzelmann (eds.), Cystic Fibrosis, Methods in Molecular Biology 741, Springer Science+Business Media). The effect of test compounds on thermal stability of NBD1 was evaluated by differential static light scattering (DSLS) using the Harbinger Stargazer-384 instrument (Epiphyte Three, Toronto, Canada). Test compounds were dissolved and diluted to desired concentrations in 100% DMSO. The compounds or DMSO controls (100 nL) were stamped into wells of a […] low volume optical plate (Corning Inc., Corning, NY) using the Echo 555 acoustic liquid handler (Labcyte Inc., San Jose, CA).
NBD1 protein was diluted to 0.2 mg/ml in S200 buffer (50 mM Tris-HCl, 150 mM NaCl, 5 mM MgCl2, 2 mM ATP, 2 mM DTT, pH7.6) containing 1% glycerol. 10 uL of protein solution was aliquoted into the 384-well plate harboring the test compounds and 10 uL mineral oil was overlaid onto the protein solution, using the epMotion robotic liquid handler (Eppendorf North America, Hauppauge, NY). After placing into the Stargazer instrument, the plate was heated at 1° C. per minute to 70° C. Images were captured from 25° C. to 70° C. every 0.5° C. At the end of the experiment run, instrument software integrated image files and analyzed data automatically. A […] regression curve was generated for each well, representing the increase in light scattering over time. A temperature of aggregation (Tagg) was calculated based on the inflection point of the curve. To better compare data across experiments the average Tagg for DMSO control wells was calculated and subtracted from values for wells containing compounds to obtain a “ΔTagg” value. These ΔTagg values reflect stabilizing efficacy of the compounds. As set forth in Table 2 below, an ΔTagg value less than or equal to 5° C. is marked “A”; a value above 5° C. and less than or equal to 10° C. is marked “B”; a value greater than 10° C. and less than or equal to 25° C. is marked “C”.

Molecules are shown by their SMILES.

These results are taken from US12649750B2, “Macrocyclic compounds, compositions, and methods of using thereof” (Sionna Therapeutics Inc., priority 2022, dated 2026).

T1 sequence (P13569 423-646 limits assumed): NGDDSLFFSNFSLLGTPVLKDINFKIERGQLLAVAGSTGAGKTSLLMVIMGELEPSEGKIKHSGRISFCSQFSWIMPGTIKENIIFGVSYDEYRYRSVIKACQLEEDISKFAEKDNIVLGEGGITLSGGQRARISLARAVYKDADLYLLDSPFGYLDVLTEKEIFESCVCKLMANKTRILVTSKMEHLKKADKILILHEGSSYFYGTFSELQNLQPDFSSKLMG

Turning to `Cn1nc2nc1-c1cc(ccc1F)Sc1c(F)cc3[nH]ccc3c1CCS(=O)(=O)CC(C)(C)CCC[C@]2(C)c1cccc([C@H](O)CO)c1` [Compound 302A, (1S)-1-[3-[(6R)-22,28-Difluoro-3,6,10,10-tetramethyl-12,12-dioxo-12λ6,24-dithia-3,4,19,30-tetrazapentacyclo[23.3.1.12,5.015,23.016,20]triaconta-1(29),2(30),4,15,17,20,22,25,27-nonaen-6-yl]phenyl]ethane-1,2-diol], the “DSLS 3D (100 μM ΔT)” value was “B (a value above 5 °C and less than or equal to 10 °C is marked “B”)”. For the compound `Cn1nc2nc1-c1cc(ccc1F)Oc1c(F)cc3[nH]ccc3c1CCS(=O)(=O)CC(C)(C)CCCC2(C)c1cccc(C(O)CO)c1` (single isomer, unassigned) [Compound 90A, 1-[3-(22,28-difluoro-3,6,10,10-tetramethyl-12,12-dioxo-24-oxa-12λ6-thia-3,4,19,30-tetrazapentacyclo[23.3.1.12,5.015,23.016,20]triaconta-1(29),2(30),4,15,17,20,22,25,27-nonaen-6-yl)phenyl]ethane-1,2-diol], the “DSLS 3D (100 μM ΔT)” value was “C (a value greater than 10 °C and less than or equal to 25 °C is marked “C”)”. In the case of `Cn1nc2nc1-c1cc(ccc1F)Sc1c(F)c(F)c3[nH]ccc3c1CCS(=O)(=O)CC(C)(C)CCC[C@]2(C)c1cccc(CC2(C(=O)O)CC2)c1` [Compound 303A, 1-[[3-[(6R)-21,22,28-Trifluoro-3,6,10,10-tetramethyl-12,12-dioxo-12λ6,24-dithia-3,4,19,30-tetrazapentacyclo[23.3.1.12,5.015,23.016,20]triaconta-1(29),2(30),4,15,17,20,22,25,27-nonaen-6-yl]phenyl]methyl]cyclopropanecarboxylic acid], the “DSLS 3D (100 μM ΔT)” value is “B (a value above 5 °C and less than or equal to 10 °C is marked “B”)”. For `C[C@@H](Cc1cccc(C2(C)CCCC(C)(C)CS(=O)(=O)CCc3c(c(F)cc4[nH]ccc34)[S+]([O-])c3ccnc(c3)-c3nc2nn3C)n1)C(=O)O` (single isomer, unassigned) [Compound 315B], the “DSLS 3D (100 μM ΔT)” value was “A (an ΔTagg value less than or equal to 5 °C is marked “A”)”. Take `CNC(=O)[C@H](C)Cc1cccc([C@@]2(C)CCCC(C)(C)CS(=O)(=O)CC(NC)c3c(c(F)c(F)c4[nH]ccc34)Oc3ccc(F)c(c3)-c3nc2nn3C)c1` (single isomer, unassigned) [Compound 360B]: the “DSLS 3D (100 μM ΔT)” value was “B (a value above 5 °C and less than or equal to 10 °C is marked “B”)”. Take `C[C@@H](Cc1cccc([C@@]2(C)CCCC(C)(C)CS(=O)(=O)CCc3c(c(F)cc4[nH]ccc34)S(=O)(=O)c3cccc(c3)-c3coc2n3)c1)C(=O)O` [Compound 331, (2S)-3-[3-[(6R)-22-Fluoro-6,10,10-trimethyl-12,12,24,24-tetraoxo-4-oxa-12λ6,24λ6-dithia-19,30-diazapentacyclo[23.3.1.12,5.015,23.016,20]triaconta-1(29),2,5(30),15,17,20,22,25,27-nonaen-6-yl]phenyl]-2-methyl-propanoic acid]: the “DSLS 3D (100 μM ΔT)” value was “A (an ΔTagg value less than or equal to 5 °C is marked “A”)”. To `Cn1nc2nc1-c1cc(ccn1)S(=O)(=O)c1c(F)cc3[nH]cc(CC(=O)O)c3c1CCS(=O)(=O)CC(C)(C)CCC[C@]2(C)c1ccccc1` [Compound 366, 2-[(6R)-22-Fluoro-3,6,10,10-tetramethyl-12,12,24,24-tetraoxo-6-phenyl-12λ6,24λ6-dithia-3,4,19,28,30-pentazapentacyclo[23.3.1.12,5.015,23.016,20]triaconta-1(29),2(30),4,15,17,20,22,25,27-nonaen-17-yl]acetic acid] belongs “A (an ΔTagg value less than or equal to 5 °C is marked “A”)”; to `C[C@@H](Cc1cccc([C@@]2(C)CCCC(C)(C)CS(=O)(=O)CCc3c(c(F)cc4[nH]ncc34)Oc3ccc(F)c(c3)-c3nc2nn3C)c1)C(=O)O` [Compound 359, (2S)-3-[3-[(6R)-22,28-Difluoro-3,6,10,10-tetramethyl-12,12-dioxo-24-oxa-12λ6-thia-3,4,18,19,30-pentazapentacyclo[23.3.1.12,5.015,23.016,20]triaconta-1(29),2(30),4,15,17,20,22,25,27-nonaen-6-yl]phenyl]-2-methyl-propanoic Acid], “B (a value above 5 °C and less than or equal to 10 °C is marked “B”)”. As to `C[C@@H](Cc1cccc(C2(C)CCCC(C)(C)CS(=O)(=O)CCc3c(c(F)cc4[nH]ccc34)Sc3ccnc(c3)-c3nc2nn3C)n1)C(=O)O` (single isomer, unassigned) [Compound 314A], the “DSLS 3D (100 μM ΔT)” value is “A (an ΔTagg value less than or equal to 5 °C is marked “A”)”. With `C[C@@H](Cc1cccc([C@@]2(C)CCCC(C)(C)CS(=O)(=O)CCc3c(c(F)cc4[nH]ccc34)[S+]([O-])c3cccc(c3)-c3coc2n3)c1)C(=O)O` (single isomer, unassigned) [Compound 330], the “DSLS 3D (100 μM ΔT)” value was “A (an ΔTagg value less than or equal to 5 °C is marked “A”)”.

Turning to `C[C@@H](Cc1cncc(C2(C)CCCC(C)(C)CS(=O)(=O)CCc3c(c(F)c(F)c4[nH]ccc34)Oc3ccnc(c3)-c3nc2nn3C)n1)C(=O)O` (single isomer, unassigned) [Compound 300A], the “DSLS 3D (100 μM ΔT)” value was “A (an ΔTagg value less than or equal to 5 °C is marked “A”)”. In the case of `C[C@H](Cc1cccc(C2NCCOCCS(=O)(=O)Cc3c(c(F)c(F)c4[nH]ccc34)Oc3ccc(F)c(c3)-c3nc2nn3C)c1)C(=O)O` (single isomer, unassigned) [Compound 381B], the “DSLS 3D (100 μM ΔT)” value was “A (an ΔTagg value less than or equal to 5 °C is marked “A”)”. On to `COc1c(CCC(=O)O)cccc1C1(C)CCCC(C)(C)CS(=O)(=O)CCc2c(c(F)c(F)c3[nH]ccc23)Oc2ccc(F)c(c2)-c2nc1nn2C` (centres unmarked) [Compound 373, 3-[2-Methoxy-3-(21,22,28-trifluoro-3,6,10,10-tetramethyl-12,12-dioxo-24-oxa-12λ6-thia-3,4,19,30-tetrazapentacyclo[23.3.1.12,5.015,23.016,20]triaconta-1(29),2(30),4,15,17,20,22,25,27-nonaen-6-yl)phenyl]propanoic Acid], for which the “DSLS 3D (100 μM ΔT)” value is “B (a value above 5 °C and less than or equal to 10 °C is marked “B”)”. To `C[C@@H](Cc1cccc(C2CCCC(C)(C)CS(=O)(=O)CCc3c(c(F)cc4[nH]ccc34)Oc3ccc(F)c(c3)-c3c(C#N)cnn32)c1)C(=O)O` (mixture of isomers) [Compound 151, (2S)-3-[3-(3-Cyano-23,29-difluoro-11,11-dimethyl-13,13-dioxo-25-oxa-13λ6-thia-5,6,20-triazapentacyclo[24.3.1.02,6.016,24.017,21]triaconta-1(30),2,4,16,18,21,23,26,28-nonaen-7-yl)phenyl]-2-methyl-propanoic Acid] belongs “A (an ΔTagg value less than or equal to 5 °C is marked “A”)”; to `Cn1nc2nc1-c1cc(ccn1)S(=O)(=O)c1c(F)c(F)c3[nH]ccc3c1CCS(=O)(=O)CC(C)(C)CCC[C@]2(C)c1cccc(CC2(C(=O)O)CC2)c1` [Compound 310, 1-[[3-[(6R)-21,22-difluoro-3,6,10,10-tetramethyl-12,12,24,24-tetraoxo-12λ6,24λ6-dithia-3,4,19,28,30-pentazapentacyclo[23.3.1.12,5.015,23.016,20]triaconta-1(29),2(30),4,15,17,20,22,25,27-nonaen-6-yl]phenyl]methyl]cyclopropanecarboxylic acid], “A (an ΔTagg value less than or equal to 5 °C is marked “A”)”.

As to `CC(=O)NC1CS(=O)(=O)CC(C)(C)CCC[C@](C)(c2cccc(C[C@@H](C)C(=O)O)c2)c2nc(n(C)n2)-c2cc(ccc2F)Oc2c(F)c(F)c3[nH]ccc3c21` (single isomer, unassigned) [Compound 369A], the “DSLS 3D (100 μM ΔT)” value was “C (a value greater than 10 °C and less than or equal to 25 °C is marked “C”)”. Consider `Cn1nc2nc1-c1cc(ccc1F)Oc1c(F)cc3[nH]ccc3c1CCS(=O)(=O)CC(C)(C)COCC2(C)c1cccc(CCC(=O)O)c1` (single isomer, unassigned) [Compound 89A, 3-[3-(22,28-difluoro-3,6,10,10-tetramethyl-12,12-dioxo-8,24-dioxa-12λ6-thia-3,4,19,30-tetrazapentacyclo[23.3.1.12,5.015,23.016,20]triaconta-1(29),2(30),4,15,17,20,22,25,27-nonaen-6-yl)phenyl]propanoic Acid], for which the “DSLS 3D (100 μM ΔT)” value is “C (a value greater than 10 °C and less than or equal to 25 °C is marked “C”)”.
